How the values were obtained:
HsPPT = conditions: cited from earlier work
PptT [1] = biological target: T1, PptT (Mycobacterium tuberculosis, UniProt O33336); type: biochemical, M. tuberculosis; conditions: MAS as target carrier protein (4 µM MAS, 2 µM rhodamine CoA), 250 nM PptT
T1 sequence (O33336 1-227): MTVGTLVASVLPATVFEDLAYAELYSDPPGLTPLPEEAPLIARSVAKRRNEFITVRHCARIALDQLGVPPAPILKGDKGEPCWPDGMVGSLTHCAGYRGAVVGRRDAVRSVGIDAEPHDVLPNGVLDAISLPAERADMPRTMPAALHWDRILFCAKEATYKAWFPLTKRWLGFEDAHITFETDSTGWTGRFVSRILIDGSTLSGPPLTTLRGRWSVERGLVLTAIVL

PptT [2] = biological target: T1, PptT; experiment: biochemical; type: binding, M. tuberculosis
Sfp = biological target: T2, Sfp (Bacillus subtilis, UniProt P39135); experiment: Isothermal titration calorimetry of CoA analogs binding to Sfp; parameters: species or system B. subtilis
T2 sequence (P39135 1-224): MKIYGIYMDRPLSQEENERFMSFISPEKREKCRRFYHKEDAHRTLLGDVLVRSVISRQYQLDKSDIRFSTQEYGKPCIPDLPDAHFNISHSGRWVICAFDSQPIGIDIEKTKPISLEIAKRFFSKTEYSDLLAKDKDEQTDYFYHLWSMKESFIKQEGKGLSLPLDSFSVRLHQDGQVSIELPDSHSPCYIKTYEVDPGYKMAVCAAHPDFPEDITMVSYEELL

In the case of C[n+]1cc2c3c(ccc2c2ccc4cc5c(cc4c21)OCO5)OCO3 [sanguinarine Cl, sanguinarine chloride], the “inhibitory activity against HsPPT” value (HsPPT) is given as “no inhibitory activity”.

With O=C1c2c(O)ccc(O)c2C(=O)c2c(NCCNCCO)ccc(NCCNCCO)c21 [mitoxantrone 2HCl, mitoxantrone] the “IC50, PptT, MAS” value (PptT [1]) was “inactive”.

For N=C1Sc2ccccc2C2=NCCCN12 [PD 404, 182], the “inhibitory activity against HsPPT” value (HsPPT) is given as “no inhibitory activity”.

In the case of NC(N)=Nc1ccc2[nH]c3c(c2c1)C[C@@]1(O)[C@H]2Cc4ccc(O)c5c4[C@@]1(CCN2CC1CC1)[C@H]3O5.O=C(O)C(F)(F)F.O=C(O)C(F)(F)F [guanidinyl-naltrindole 2CF3COOH, guanidinyl-naltrindole], the “inhibitory activity against HsPPT” value (HsPPT) is listed as “no inhibitory activity”.

In the case of CN[C@@H](C)[C@H](O)c1ccccc1 [(−)-ephedrine hemisulfate, (−)-ephedrine], the “IC50, PptT, MAS” value (PptT [1]) is reported as “inactive”.

For CN=c1nc(-c2ccccc2)n(-c2ccccc2)s1 [SCH-202676], the “inhibitory activity against HsPPT” value (HsPPT) is listed as “no inhibitory activity”.

For Clc1ccc(C(c2ccc(Cl)cc2)n2cc[n+](CC(OCc3ccc(Cl)cc3Cl)c3ccc(Cl)cc3Cl)c2)cc1 (stereo not shown) [calmidazolium Cl, calmidazolium chloride], the “inhibitory activity against HsPPT” value (HsPPT) is listed as “no inhibitory activity”.

In the case of CC(C)(COP(=O)(O)OP(=O)(O)OC[C@H]1O[C@@H](n2cnc3c(N)ncnc32)[C@H](O)[C@@H]1OP(=O)(O)O)[C@@H](O)C(=O)NCCC(=O)NCCS [CoA, coenzyme A], the Kd (PptT [2]) is reported as 0.036 ± 0.013 µM, the “enthalpy of binding (ΔH), PptT” value (PptT [2]; ITC, 16°C) is reported as −5.78 ± 0.08 kcal mol^–1 and the “entropy of binding (TΔS), PptT” value (PptT [2]; ITC, 16°C) is reported as 4.14 ± 0.16 kcal mol^–1. The Kd (Sfp) was 3.4 ± 0.2 µM, the “enthalpy of binding (ΔH), Sfp” value (Sfp; ITC, 16°C) was −12.5 ± 0.15 kcal mol^–1 and the “entropy of binding (TΔS), Sfp” value (Sfp; ITC, 16°C) was −5.07 ± 0.38 kcal mol^–1.

Source: publication PMC4168790 (ACS Chemical Biology, 2014)
